Experimental data from article PMC7497641, “Neurotropic activity and safety of methylene-cycloalkylacetate (MCA) derivative 3-(3-allyl-2-methylenecyclohexyl) propanoic acid” (ACS Chemical Neuroscience, 2020).

Assays:
[1] = target: T1, Lymphocyte Cell-Specific Protein-Tyrosine Kinase (Src family) (LCK) (Homo sapiens, UniProt P06239); experiment: SAFETYscan KINOMEscan binding assay; settings: Inhibitor
T1 construct: host or cells: E. coli BL21-derived host (T7 phage) or HEK-293

CAMK2α = target: T2, CAMK2α (Homo sapiens, UniProt Q9UQM7); experiment: PhosphoSens CSox based kinase assay; type: biochemical; settings: 5 μM HU-MCA-13
T2 construct: amino acids 1-478, Carna (cat. & lot #: 02)
Text: (§1) The initial focus was to measure the modulatory activity in vitro of MCA-13 on protein kinases which were reported to be involved in induction of neurite outgrowth.[18],[43] To do this, we took advantage of a powerful method to measure the activity of recombinant protein kinases using a homogeneous and continuous (kinetic) format, where the level of chelation-enhanced fluorescence (CHEF) is directly proportional to the amount of phosphorylated, real-time sensors consisting of sulfonamido-oxine (Sox) chromophore linked to a peptide or protein substrates of selective kinases.[44] This assay is ideal for elucidating drug mechanism of action and is increasingly being applied earlier in the drug development workflow to address off target effects and/or the challenges and opportunities for next generation protein kinase inhibitors.[45] Since neurotrophins induce neurite outgrowth by activating the different tropomyosin kinase receptors (Trk), and small molecules agonists of Trk receptors can selectively activate Trks,[46] we first investigated the ability of HU-MCA-13 to modulate TRKA, TRKB and TRKC phosphorylation activities (Supporting Information, Figure S3-2). […] The TRKs constructs used in the assay contained only the intracellular kinase domain (amino acids 442–786) and therefore presently we cannot exclude that HU-MCA-13 may interact with the TRKs extracellular domain thereby inducing the conformational change required for the kinase domain activation. […] Moreover, no effects of HU-MCA-13were found on other kinases (ASK1, ERK2, JNK3, p38α, CDK5, KDR-VEGFR, AKT1, GSK3β, PDGFRβ, PKACα, PKC, CK1, IKKβ) which stimulate neurite outgrowth. Also, no effects were observed of HU-MCA-13 on kinases (EGFR, IGF1R, FGFR 1 and 2, CAMK2α,) which inhibit neurite outgrowth or calcineurin phosphatase which dephosphorylates the neurite outgrowth stimulatory protein, cofilin.[47]
(§2) MCA-13 safety b y in vitro eval uati on usi ng Phos pho Sens®C Soxb ased kinase […]
(§3) Method: Kinase Activity Measurements
(§4) Kinase activity was measured continuously using the PhosphoSens®technology (AssayQuant Technologies Inc., Marlborough, MA) according to the manufacturers’ recommendations (http://www.assayquant.com/) . This one-step homogeneous assay use s chelation-enh anced fluorescence via optimized substrate sensors unique for each kinase, containing the unnatural fluorogenic amino-acid Sox.
(§5) The following kinases which, upon stimulation or inhibition with small molecule modulators, induced neurite outgrowth, were obtained from different companies and were used in this study at the following concentrations: 2.
(§6) 25 µL final reaction volume including : 2.5 µl Sox-based substrate (10 x), 17.5 µl reaction mix with AT P, 5.0 µL Kinase [5x in EDB (Enzyme Dilution Buffer : 20 mM TRIS, pH 8.0, 0.01% Brij -35, 0.1 mM EGTA, 5% Glycerol, 1 mM DTT, 1 mg/mL Bovine Serum Albumin]. 5-45 min preincubation (all except EDB/kinase) at 30 °C of substrate in reaction mix and ATP ensuring that the progress kinetic curve for the background fluorescence w as flat. Reaction was run at 30 °C for […]
(§7) Final Reaction Conditions.
(§8) Protein kinase activity was determined in 54 mM HEPES, pH 7.5 1 mM ATP 1.2 mM DTT (none in ASK1) 0.012% Brij-35 1% glycerol 0.2 mg/ml BSA 0.52 mM EGTA (none in assays of CAMK2α, PKCε, PKCι, Calcineurin A/B) 140 µM phosphatidylserine/3.8 µM diacylglycerol (PKCε, PKCι only) 5 ng/µl calmodulin/0.4 mM CaCl2 (CAMK2α, Calcineurin A/B only) 10 mM […]
(§9) IKKβ, AKT1, GSK3β, PKCε, PKCι, PKACα, KDR, CK1δ, EGFR, ASK1, IGF1R, CAMK2α, DLK, FGFR2, FGFR1) in the presence or absence of 5 µ M H U-MCA-13 test compound. All components e xcept enzyme were equilibrated to 30 °C prior to setting up reactions run in Corning, 384-well, white flat round bottom polystyrene NBS microplates (Cat. #3824) after sealing using optically-clear adhesive film [TopSealA -Plus plate seal, PerkinElmer (Cat. #6050185)], applied with a roller to eliminate evaporation and resulting drift. Europium was added to a final […]

EGFR = target: T3, EGFR (Homo sapiens, UniProt P00533); experiment: PhosphoSens CSox based kinase assay; type: biochemical; settings: 5 μM HU-MCA-13
T3 construct: amino acids 668-1210, BPS Bio (cat. & lot #: 40187,; purchased BPS Bio 40187
T3 sequence (P00533 668-1210): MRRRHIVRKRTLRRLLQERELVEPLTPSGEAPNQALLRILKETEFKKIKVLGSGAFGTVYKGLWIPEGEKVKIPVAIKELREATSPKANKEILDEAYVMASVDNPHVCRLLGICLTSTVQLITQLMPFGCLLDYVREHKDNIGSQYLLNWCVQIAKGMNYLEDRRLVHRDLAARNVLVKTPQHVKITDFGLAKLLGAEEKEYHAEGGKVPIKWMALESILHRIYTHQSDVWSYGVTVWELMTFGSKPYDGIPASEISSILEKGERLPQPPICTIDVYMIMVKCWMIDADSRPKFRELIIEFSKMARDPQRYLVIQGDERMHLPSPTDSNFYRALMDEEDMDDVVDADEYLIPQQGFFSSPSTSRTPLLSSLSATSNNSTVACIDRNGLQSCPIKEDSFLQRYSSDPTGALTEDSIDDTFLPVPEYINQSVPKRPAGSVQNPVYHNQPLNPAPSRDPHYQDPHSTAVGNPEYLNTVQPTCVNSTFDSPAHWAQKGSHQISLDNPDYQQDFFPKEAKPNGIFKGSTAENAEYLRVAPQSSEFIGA
Text: as §1, §2, §3, §4, §5, §6, §7, §8, §9

TRKA = target: T4, TRKA (Homo sapiens, UniProt P04629); experiment: PhosphoSens CSox based kinase assay; type: biochemical; settings: 5 μM HU-MCA-13; intracellular kinase domain
T4 construct: purchased BPS Bio 40280 (lot 151113G)
T4 sequence (P04629 442-796): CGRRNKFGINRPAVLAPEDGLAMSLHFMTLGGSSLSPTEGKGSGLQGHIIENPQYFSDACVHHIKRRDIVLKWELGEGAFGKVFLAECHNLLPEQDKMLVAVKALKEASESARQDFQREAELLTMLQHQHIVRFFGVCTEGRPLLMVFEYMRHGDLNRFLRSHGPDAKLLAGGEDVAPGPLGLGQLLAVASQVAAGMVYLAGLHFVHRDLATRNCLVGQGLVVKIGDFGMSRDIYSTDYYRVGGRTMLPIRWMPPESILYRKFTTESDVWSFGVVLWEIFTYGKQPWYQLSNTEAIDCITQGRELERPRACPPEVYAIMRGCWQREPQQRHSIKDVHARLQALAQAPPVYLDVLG
Text: as §1, §2, §3, §4, §5, §6, §7, §8, §9

KDR-VEGFR = target: T5, KDR-VEGFR (Homo sapiens, UniProt P35968); experiment: PhosphoSens CSox based kinase assay; type: biochemical; settings: 5 μM HU-MCA-13
T5 construct: KDR, amino acids 790 -1356, Carna (cat. & lot #: 08 -191,; purchased Carna 08-191
T5 sequence (P35968 790-1356): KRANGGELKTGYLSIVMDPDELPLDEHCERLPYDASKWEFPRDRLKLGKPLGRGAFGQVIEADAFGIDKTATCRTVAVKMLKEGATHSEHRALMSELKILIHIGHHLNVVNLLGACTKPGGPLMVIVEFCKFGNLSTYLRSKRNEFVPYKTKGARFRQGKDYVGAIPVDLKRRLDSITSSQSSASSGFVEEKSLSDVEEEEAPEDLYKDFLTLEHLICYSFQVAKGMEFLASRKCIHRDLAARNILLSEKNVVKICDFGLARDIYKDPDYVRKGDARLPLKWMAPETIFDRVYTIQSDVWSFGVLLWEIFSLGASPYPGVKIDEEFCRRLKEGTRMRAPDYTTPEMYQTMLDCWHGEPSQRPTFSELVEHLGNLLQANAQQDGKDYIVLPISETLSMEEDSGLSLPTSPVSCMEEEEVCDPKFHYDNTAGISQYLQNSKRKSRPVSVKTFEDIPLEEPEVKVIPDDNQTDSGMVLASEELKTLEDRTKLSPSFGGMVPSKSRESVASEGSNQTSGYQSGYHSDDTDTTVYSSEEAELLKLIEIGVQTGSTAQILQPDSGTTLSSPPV
Text: as §1, §2, §3, §4, §5, §6, §7, §8, §9

TRKC = target: T6, TRKC (Homo sapiens, UniProt Q16288); experiment: PhosphoSens CSox based kinase assay; type: biochemical; settings: 5 μM HU-MCA-13; no effect on initial rate, small delay in later stage of progress curve
T6 construct: TRKC, amino acids 45 6-825, BPS Bio; purchased BPS Bio 40282 (lot 140205-G2)
T6 sequence (Q16288 456-825 isoform Q16288-3 limits assumed): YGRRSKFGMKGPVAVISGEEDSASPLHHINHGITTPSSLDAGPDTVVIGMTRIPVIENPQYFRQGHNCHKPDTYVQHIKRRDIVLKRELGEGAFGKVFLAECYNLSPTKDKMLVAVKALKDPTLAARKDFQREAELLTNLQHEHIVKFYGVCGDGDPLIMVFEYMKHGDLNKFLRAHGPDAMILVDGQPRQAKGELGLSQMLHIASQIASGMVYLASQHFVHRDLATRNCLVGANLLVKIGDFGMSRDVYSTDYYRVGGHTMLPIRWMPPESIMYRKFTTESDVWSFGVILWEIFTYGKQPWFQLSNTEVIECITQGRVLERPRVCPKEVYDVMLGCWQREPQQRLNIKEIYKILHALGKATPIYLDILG
Text: as §1, §2, §3, §4, §5, §6, §7, §8, §9

[2] = target: Endothelin Receptor Type A (EDNRA) (Homo sapiens, UniProt P25101); experiment: SAFETYscan GPCR Calcium Flux; type: cell-based; settings: read-out: RC50 (the source's name)
Chain of Endothelin Receptor Type A (EDNRA) (P25101 21-427): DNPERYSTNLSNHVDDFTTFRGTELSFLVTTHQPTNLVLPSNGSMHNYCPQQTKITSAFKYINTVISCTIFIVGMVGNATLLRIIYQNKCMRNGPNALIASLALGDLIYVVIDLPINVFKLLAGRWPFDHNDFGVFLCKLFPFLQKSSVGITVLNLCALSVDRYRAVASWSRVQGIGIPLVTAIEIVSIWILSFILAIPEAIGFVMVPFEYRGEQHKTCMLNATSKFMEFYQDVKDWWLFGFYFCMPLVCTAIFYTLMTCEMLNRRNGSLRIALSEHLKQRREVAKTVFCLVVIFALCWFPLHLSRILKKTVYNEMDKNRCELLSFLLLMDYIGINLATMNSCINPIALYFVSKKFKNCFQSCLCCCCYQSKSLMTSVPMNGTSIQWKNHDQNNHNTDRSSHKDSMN

[3] = target: A tetrodotoxin-resistant voltage-gated sodium channel (NAVI1.5) (Homo sapiens, UniProt Q14524); experiment: cell-based
[4] = target: T7, Dopamine Receptor D2 (DRD2S) (Homo sapiens, UniProt P14416); experiment: SAFETYscan GPCR cAMP; type: cell-based
T7 construct: host or cells: cAMP Hunter cell lines
T7 sequence (P14416 1-414 isoform P14416-2): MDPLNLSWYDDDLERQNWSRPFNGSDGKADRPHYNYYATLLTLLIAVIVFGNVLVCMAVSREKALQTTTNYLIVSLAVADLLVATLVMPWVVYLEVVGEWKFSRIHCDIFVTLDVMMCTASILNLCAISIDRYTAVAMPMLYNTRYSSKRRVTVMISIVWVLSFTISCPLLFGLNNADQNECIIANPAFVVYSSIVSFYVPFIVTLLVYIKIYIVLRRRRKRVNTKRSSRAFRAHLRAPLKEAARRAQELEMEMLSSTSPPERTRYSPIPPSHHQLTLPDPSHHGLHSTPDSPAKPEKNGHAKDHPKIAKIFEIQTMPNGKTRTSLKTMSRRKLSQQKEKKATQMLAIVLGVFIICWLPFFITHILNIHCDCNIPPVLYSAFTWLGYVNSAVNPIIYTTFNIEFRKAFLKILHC

[5] = target: Histamine Receptor H2 (HRH2) (Homo sapiens, UniProt P25021); experiment: SAFETYscan GPCR cAMP; type: cell-based; settings: read-out: RC50 (the source's name)
Chain of Histamine Receptor H2 (HRH2) (P25021 whole entry): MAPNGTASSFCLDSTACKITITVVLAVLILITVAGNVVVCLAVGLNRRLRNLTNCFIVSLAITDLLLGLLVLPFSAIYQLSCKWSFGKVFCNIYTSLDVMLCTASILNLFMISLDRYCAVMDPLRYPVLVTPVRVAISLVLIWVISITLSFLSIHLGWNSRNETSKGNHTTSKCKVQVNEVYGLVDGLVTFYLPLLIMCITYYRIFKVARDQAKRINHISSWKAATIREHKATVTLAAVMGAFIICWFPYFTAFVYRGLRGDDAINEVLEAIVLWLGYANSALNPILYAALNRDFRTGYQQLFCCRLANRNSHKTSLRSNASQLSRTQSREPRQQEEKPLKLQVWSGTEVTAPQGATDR

T1 sequence (P06239 whole entry): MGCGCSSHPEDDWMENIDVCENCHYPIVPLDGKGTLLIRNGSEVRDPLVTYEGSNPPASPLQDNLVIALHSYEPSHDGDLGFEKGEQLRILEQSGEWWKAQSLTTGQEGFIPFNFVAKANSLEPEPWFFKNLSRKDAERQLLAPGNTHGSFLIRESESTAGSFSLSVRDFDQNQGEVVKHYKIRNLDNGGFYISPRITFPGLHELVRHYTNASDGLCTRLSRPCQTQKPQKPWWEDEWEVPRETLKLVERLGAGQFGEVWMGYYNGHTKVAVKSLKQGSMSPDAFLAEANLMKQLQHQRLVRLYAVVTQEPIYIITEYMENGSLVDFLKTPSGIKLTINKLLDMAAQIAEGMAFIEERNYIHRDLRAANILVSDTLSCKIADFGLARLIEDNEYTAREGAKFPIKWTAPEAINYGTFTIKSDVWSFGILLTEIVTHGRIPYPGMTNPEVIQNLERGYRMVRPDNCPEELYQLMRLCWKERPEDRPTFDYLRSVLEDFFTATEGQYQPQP

For `C=CCC1CCCC(CCC(=O)O)C1=C` (centres unmarked) [HU-MCA-13, 3-(3-allyl-2-methylenecyclohexyl)propanoic acid], the inhibition at 10 µM ([1]; 10 μM, read-out: MCA-13 Max. Responce) was 12.8%, the IC50 ([1]; read-out: RC50 (the source's name)) was greater than 10 µM and the “effect on kinase activity” value (CAMK2α) was “no effects”. For the same compound, the “effect on kinase activity” value (EGFR) was “no effects”, the “modulation of phosphorylation activity” value (TRKA) was “no effects” and the “effect on kinase activity” value (KDR-VEGFR) was “no effects”. For the same compound, the “modulation of phosphorylation activity” value (TRKC) was “slight inhibitory effect”, the EC50 ([2]; Agonist) was greater than 10 µM and the IC50 ([2]; Antagonist) was greater than 10 µM. It also gave an IC50 [3] greater than 10 µM, an EC50 [4] greater than 10 µM and an IC50 [4] greater than 10 µM. It also gave an EC50 ([5]; Agonist) greater than 10 µM and an IC50 ([5]; Antagonist) greater than 10 µM.
